The values that follow are results of earlier work, collected in patent US8748582B2, “Affinity ligands and methods for protein purification” (Monash University, priority 2009, dated 2014).

The target of the data set is IgG. Particulars: read-out: dissociation constant for IgG.

For the substance “Protein A: bacterial Fc receptor used as immobilised affinity ligand for antibodies”, the Kd was 100 nM.
